Assays:
[1] = target: T1, Androgen receptor (Homo sapiens, UniProt P10275, T878A); assay: Inhibition of mutant T877A Androgen receptor in human LNCaP cells; Ag means agonist; assay type: functional, cell-based
[2] = target: T2, Androgen receptor (Homo sapiens, UniProt P10275); assay: Inhibition of androgen dependent human prostate cancer cell […] proliferation; Ag means agonist; assay type: functional, cell-based; conditions: cancer cell lines
T2 sequence (P10275 whole entry): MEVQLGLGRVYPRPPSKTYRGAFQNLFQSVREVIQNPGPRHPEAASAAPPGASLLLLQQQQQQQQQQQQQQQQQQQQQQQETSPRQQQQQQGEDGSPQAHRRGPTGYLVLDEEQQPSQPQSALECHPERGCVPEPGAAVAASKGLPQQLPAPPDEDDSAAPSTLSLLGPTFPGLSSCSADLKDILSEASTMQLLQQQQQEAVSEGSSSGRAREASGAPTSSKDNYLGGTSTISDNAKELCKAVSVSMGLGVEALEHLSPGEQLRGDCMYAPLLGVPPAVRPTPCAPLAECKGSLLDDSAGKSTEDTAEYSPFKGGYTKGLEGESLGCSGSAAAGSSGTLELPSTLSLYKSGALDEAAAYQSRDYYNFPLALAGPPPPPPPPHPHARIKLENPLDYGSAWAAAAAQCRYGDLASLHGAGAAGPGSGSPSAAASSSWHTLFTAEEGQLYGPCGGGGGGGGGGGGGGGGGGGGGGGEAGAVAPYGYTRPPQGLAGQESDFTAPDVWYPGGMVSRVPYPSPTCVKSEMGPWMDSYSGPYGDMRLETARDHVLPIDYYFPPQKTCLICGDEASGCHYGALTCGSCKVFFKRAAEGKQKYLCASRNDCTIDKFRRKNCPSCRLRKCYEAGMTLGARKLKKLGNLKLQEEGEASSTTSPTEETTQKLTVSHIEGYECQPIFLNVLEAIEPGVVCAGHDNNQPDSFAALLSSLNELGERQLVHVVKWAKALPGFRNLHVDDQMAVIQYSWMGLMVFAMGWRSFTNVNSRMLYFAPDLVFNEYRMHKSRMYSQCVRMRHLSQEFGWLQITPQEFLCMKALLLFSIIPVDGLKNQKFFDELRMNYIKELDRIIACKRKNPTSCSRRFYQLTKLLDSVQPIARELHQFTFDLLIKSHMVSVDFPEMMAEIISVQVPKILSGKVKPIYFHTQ

[3] = target: T2, Androgen receptor
Description: Inhibition of androgen receptor in human MDA-453 cells

[4] = target: T1, Androgen receptor; assay: biochemical
[5] = target: T1, Androgen receptor; assay: Inhibition of mutant T877A Androgen receptor in human LNCaP cells; assay type: cell-based
[6] = target: T2, Androgen receptor; assay: Binding affinity for androgen receptor in human MDA-453 cells

T1 sequence (P10275 whole entry T878A): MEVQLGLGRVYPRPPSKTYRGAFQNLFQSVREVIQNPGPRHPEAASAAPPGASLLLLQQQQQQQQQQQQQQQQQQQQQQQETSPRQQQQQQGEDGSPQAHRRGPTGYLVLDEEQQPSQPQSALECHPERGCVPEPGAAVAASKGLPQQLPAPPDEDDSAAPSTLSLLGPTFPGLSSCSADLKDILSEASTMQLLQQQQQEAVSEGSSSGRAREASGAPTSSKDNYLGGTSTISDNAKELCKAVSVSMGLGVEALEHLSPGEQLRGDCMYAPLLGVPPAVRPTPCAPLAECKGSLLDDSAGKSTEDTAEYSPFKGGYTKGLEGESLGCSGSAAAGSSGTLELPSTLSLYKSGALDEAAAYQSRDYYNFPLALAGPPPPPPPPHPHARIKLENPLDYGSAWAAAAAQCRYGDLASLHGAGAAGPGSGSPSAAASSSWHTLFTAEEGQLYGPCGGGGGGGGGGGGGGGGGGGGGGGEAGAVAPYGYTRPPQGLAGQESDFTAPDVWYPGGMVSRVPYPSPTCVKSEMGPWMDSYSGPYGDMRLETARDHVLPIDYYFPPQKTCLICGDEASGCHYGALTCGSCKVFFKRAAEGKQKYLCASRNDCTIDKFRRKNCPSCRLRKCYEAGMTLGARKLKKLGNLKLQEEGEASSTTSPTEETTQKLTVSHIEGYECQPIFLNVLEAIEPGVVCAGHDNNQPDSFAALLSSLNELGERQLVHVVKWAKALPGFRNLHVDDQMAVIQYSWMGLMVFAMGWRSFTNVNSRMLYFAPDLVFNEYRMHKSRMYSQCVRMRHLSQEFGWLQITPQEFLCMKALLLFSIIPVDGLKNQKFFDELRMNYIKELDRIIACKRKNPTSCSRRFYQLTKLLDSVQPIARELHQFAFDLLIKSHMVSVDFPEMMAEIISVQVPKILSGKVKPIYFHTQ

Q: Which IC50 [1] does the source give for `O=C1[C@@H]2C3CCC(C3)[C@@H]2C(=O)N1c1ccc([N+](=O)[O-])c(C(F)(F)F)c1` here?
A: Agonist

Q: And the IC50 [2]?
A: Agonist

Q: `Cc1cc(N2C(=O)[C@@H]3C4C=CC(CC4)[C@@H]3C2=O)ccc1Br` was tested. Which IC50 [1] did it give?
A: Agonist

Q: And the IC50 [2]?
A: Agonist

Q: What about the IC50 [3] of the same compound?
A: 68 nM

Q: And the Ki [4]?
A: 0.01 nM

Q: With `O=C1[C@@H]2C3C=CC(CC3)[C@@H]2C(=O)N1c1cccc(C(F)(F)F)c1` as the compound, how does the IC50 [5] read?
A: 66 nM

Q: And the IC50 [3]?
A: 196 nM

Q: And the Ki [4]?
A: 19 nM

Q: How did the Ki [6] turn out when `O=C1[C@@H]2C3C=CC(C3)[C@@H]2C(=O)N1c1ccc(Cl)c(Cl)c1` was run?
A: 158 nM

Q: What about the IC50 [5] of the same compound?
A: 41 nM

Q: And the IC50 [3]?
A: 307 nM

Q: What about the Ki [4] of the same compound?
A: 6 nM

Q: `O=C1[C@@H]2C3C=CC([C@H]4C[C@@H]34)[C@@H]2C(=O)N1c1cccc(C(F)(F)F)c1` was tested. Which IC50 [5] did it give?
A: 30 nM

Q: And the IC50 [3]?
A: 1700 nM

Q: What about the Ki [4] of the same compound?
A: 9 nM

Q: With `CN1C(=O)C2C=CC1[C@@H]1C(=O)N(c3ccc([N+](=O)[O-])c4ccccc34)C(=O)[C@H]21` (stereo not given in full) as the compound, how does the Ki [6] read?
A: > 5000 nM

Q: And the IC50 [5]?
A: 631 nM

Q: And the IC50 [3]?
A: 4030 nM

Q: And the Ki [4]?
A: 115 nM

Q: With `O=C1[C@@H]2C3CCCC(CC3)[C@@H]2C(=O)N1c1cccc(C(F)(F)F)c1` as the compound, how does the IC50 [5] read?
A: 23 nM

Q: What about the IC50 [3] of the same compound?
A: 658 nM

Q: What about the Ki [4] of the same compound?
A: 20 nM

Q: Which IC50 [1] does the source give for `O=C1[C@@H]2C3C=CC(CC3)[C@@H]2C(=O)N1c1ccc(Cl)c(Cl)c1` here?
A: Agonist

Q: What about the IC50 [2] of the same compound?
A: Agonist

Q: What about the Ki [6] of the same compound?
A: 83 nM

Q: What about the IC50 [3] of the same compound?
A: 150 nM

Q: And the Ki [4]?
A: 28 nM

Q: With `O=C1[C@@H]2C3C=CC(CC3)[C@@H]2C(=O)N1c1ccc([N+](=O)[O-])c2ccccc12` as the compound, how does the IC50 [2] read?
A: Agonist

Q: What about the IC50 [3] of the same compound?
A: 224 nM

Q: What about the Ki [4] of the same compound?
A: 0.5 nM

Q: With `O=C1[C@@H]2C3C=CC([C@H]4C[C@@H]34)[C@@H]2C(=O)N1c1ccc([N+](=O)[O-])c2ccccc12` as the compound, how does the IC50 [1] read?
A: Agonist

Q: What about the IC50 [2] of the same compound?
A: Agonist

Q: What about the Ki [6] of the same compound?
A: 3 nM

Q: And the IC50 [3]?
A: 786 nM

Q: What does the source list for `O=C1[C@@H]2C3C=CC(CCC3)[C@@H]2C(=O)N1c1ccc([N+](=O)[O-])c2ccccc12`?
A: IC50 [1]: Agonist; IC50 [2]: Agonist; IC50 [3]: 49 nM

Q: How did the IC50 [2] turn out when `Cc1cc(N2C(=O)[C@@H]3C4C=CC([C@H](O)[C@@H]4O)[C@@H]3C2=O)ccc1Br` was run?
A: Agonist

Q: What about the Ki [6] of the same compound?
A: 432 nM

Q: And the IC50 [5]?
A: 59 nM

Q: What about the IC50 [3] of the same compound?
A: 5240 nM

Q: And the Ki [4]?
A: 33 nM

Q: What does the source list for `CC(C)(O)C(=O)Nc1ccc([N+](=O)[O-])c(C(F)(F)F)c1` [HYDROXYFLUTAMIDE]?
A: IC50 [1]: Agonist; IC50 [2]: Agonist

Reference: ChEMBL document CHEMBL1142826, “Structure based approach to the design of bicyclic-1H-isoindole-1,3(2H)-dione based androgen receptor antagonists” (Bioorg Med Chem Lett, 2005)
